# In US20180371044A1, “PEPTIDOMIMETIC MACROCYCLES” (Aileron Therapeutics, Inc., priority 2015, published 2018):
# Where a SMILES comes first, the peptide text is derived from it. Bridges are numbered along the chain shown (N, C = ends). [ ]: non-standard residue; d: D form. NMeY = CN[C@@H](Cc1ccc(O)cc1)C(=O)O; R8 = C=CCCCCCC[C@@](C)(N)C(=O)O; S5 = C=CCCC[C@](C)(N)C(=O)O; Nle = CCCC[C@H](N)C(=O)O
# Target: T1, human GHRH receptor (hGHRHR) (Homo sapiens, UniProt Q02643)
# T1 construct: expressed in transfected cells; host or cells: Human 293 cells
# T1 sequence (Q02643 23-423): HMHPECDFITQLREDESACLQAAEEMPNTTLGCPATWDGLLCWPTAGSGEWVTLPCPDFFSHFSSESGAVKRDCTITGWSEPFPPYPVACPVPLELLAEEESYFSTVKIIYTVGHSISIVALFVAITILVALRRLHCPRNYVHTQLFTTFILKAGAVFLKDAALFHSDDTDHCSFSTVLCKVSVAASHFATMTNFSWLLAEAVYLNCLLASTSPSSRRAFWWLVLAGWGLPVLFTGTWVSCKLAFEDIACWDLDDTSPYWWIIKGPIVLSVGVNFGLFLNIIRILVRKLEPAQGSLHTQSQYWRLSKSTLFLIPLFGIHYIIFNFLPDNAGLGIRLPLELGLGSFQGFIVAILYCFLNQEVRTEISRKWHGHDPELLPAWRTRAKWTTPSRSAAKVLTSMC
# Experiment: GHRHR agonism measured by cAMP (HTRF) in human 293 cells expressing hGHRHR;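 note: receptor expressed transiently or stably, cells stimulated in serum-free medium, EC50 from a non-linear dose-response fit, maximal response defined by reference GHRH stimulation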
# Type: cell-based
# Details: 30 min at RT
# Method: GHRH (1-29) and cross-linked peptidomimetic macrocycles were tested for agonism at the human GHRH receptor (hGHRHR) at various concentrations. Human 293 cells transiently or stably expressing hGHRHR were detached from cell culture flasks with versene (Life Technologies™), suspended in serum-free medium (50 k cells/assay point), and stimulated for 30 min at RT with GHRH (1-29) (Bachem™) or cross-linked peptidomimetic macrocycles. cAMP was quantified using an HTRF®-based assay (CisBio) and used according to the manufacturer's instructions. An EC50 for each agonist was calculated from a non-linear fit of response vs dose (GraphPad™ Prism). The maximum response was determined by stimulating with 10 μM GHRH (1-29). (+=>50 nm; ++=>25-50 nm; +++=>10-25 nm; ++++=>1-10 nm; +++++=≤1 nm).
row,EC50 [nM],SMILES
1,10 to 25,CCCC[C@H](NC(=O)[C@@H](NC(=O)[C@H](CC(=O)O)NC(=O)[C@H](CCC(N)=O)NC(=O)[C@H](CC(C)C)NC(=O)[C@H](CC(C)C)NC(=O)[C@H](CCCCN)NC(=O)[C@H](CCCNC(=N)N)NC(=O)[C@]1(C)CCCC=CCCCCCC[C@@](C)(NC(=O)[C@H](CCCNC(=N)N)NC(=O)[C@H](Cc2ccc(O)cc2)NC(=O)[C@H](CO)NC(=O)[C@H](CC(N)=O)NC(=O)[C@@H](NC(=O)[C@H](Cc2ccccc2)NC(=O)[C@@H](NC(=O)[C@H](C)NC(=O)[C@H](CC(=O)O)NC(=O)[C@@H](C)NC(=O)[C@@H](N)Cc2ccc(O)cc2)[C@@H](C)CC)[C@@H](C)O)C(=O)N[C@@H](C(C)C)C(=O)N[C@@H](CC(C)C)C(=O)NCC(=O)N[C@@H](CCC(N)=O)C(=O)N[C@@H](CC(C)C)C(=O)N[C@@H](CO)C(=O)N1)[C@@H](C)CC)C(=O)N[C@@H](CO)C(=O)N[C@@H](CCCNC(=N)N)C(N)=O [SP-4] (H-Y[dA]DAIFTNSYR[R8]VLGQLS[S5]RKLLQDI[Nle]SR-NH2; staple 12-19)
2,1 to 10,CCCC[C@H](NC(=O)[C@@H](NC(=O)[C@H](CC(=O)O)NC(=O)[C@H](CCC(N)=O)NC(=O)[C@H](CC(C)C)NC(=O)[C@H](CC(C)C)NC(=O)[C@H](CCCCN)NC(=O)[C@H](CCCNC(=N)N)NC(=O)[C@H](C)NC(=O)[C@H](CO)NC(=O)[C@H](CC(C)C)NC(=O)[C@H](CCC(N)=O)NC(=O)[C@H](C)NC(=O)[C@H](CC(C)C)NC(=O)[C@@H](NC(=O)[C@H](CCCCN)NC(=O)[C@H](CCCNC(=N)N)NC(=O)[C@H](Cc1ccc(O)cc1)NC(=O)[C@H](CO)NC(=O)[C@H](CC(N)=O)NC(=O)[C@@H](NC(=O)[C@H](Cc1ccccc1)NC(=O)[C@@H](NC(=O)[C@H](C)NC(=O)[C@H](CC(=O)O)NC(=O)[C@H](C)NC(=O)[C@@H](N)Cc1ccc(O)cc1)[C@@H](C)CC)[C@@H](C)O)C(C)C)[C@@H](C)CC)C(=O)N[C@@H](CO)C(=O)N[C@@H](CCCNC(=N)N)C(N)=O [SP-5] (H-YADAIFTNSYRKVLAQLSARKLLQDI[Nle]SR-NH2)
3,1 to 10,CCCC[C@H](NC(=O)[C@@H](NC(=O)[C@H](CC(=O)O)NC(=O)[C@H](CCC(N)=O)NC(=O)[C@H](CC(C)C)NC(=O)[C@H](C)NC(=O)[C@H](CCCCN)NC(=O)[C@H](CCCNC(=N)N)NC(=O)[C@H](C)NC(=O)[C@H](CO)NC(=O)[C@H](CC(C)C)NC(=O)[C@H](CCC(N)=O)NC(=O)[C@H](C)NC(=O)[C@H](CC(C)C)NC(=O)[C@@H](NC(=O)[C@]1(C)CCCC=CCCC[C@](C)(NC(=O)[C@@H](NC(=O)[C@H](Cc2ccccc2)NC(=O)[C@@H](NC(=O)[C@H](C)NC(=O)[C@H](CC(=O)O)NC(=O)[C@H](C)NC(=O)[C@H](Cc2ccc(O)cc2)NC)[C@@H](C)CC)[C@@H](C)O)C(=O)N[C@@H](CO)C(=O)N[C@@H](Cc2ccc(O)cc2)C(=O)N[C@@H](CCCNC(=N)N)C(=O)N1)C(C)C)[C@@H](C)CC)C(=O)N[C@@H](CO)C(=O)N[C@@H](CCCNC(=N)N)C(N)=O [SP-9] (H-[NMeY]ADAIFT[S5]SYR[S5]VLAQLSARKALQDI[Nle]SR-NH2; staple 8-12)
4,1 to 10,CCCC[C@H](NC(=O)[C@@H](NC(=O)[C@H](CC(=O)O)NC(=O)[C@H](CCC(N)=O)NC(=O)[C@H](CC(C)C)NC(=O)[C@H](C)NC(=O)[C@H](CCCCN)NC(=O)[C@H](CCCNC(=N)N)NC(=O)[C@H](C)NC(=O)[C@H](CO)NC(=O)[C@H](CC(C)C)NC(=O)[C@H](CCC(N)=O)NC(=O)[C@H](C)NC(=O)[C@H](CC(C)C)NC(=O)[C@]1(C)CCCC=CCCC[C@](C)(NC(=O)[C@H](C)NC(=O)[C@@H](NC(=O)[C@H](Cc2ccccc2)NC(=O)[C@@H](NC(=O)[C@H](C)NC(=O)[C@H](CC(=O)O)NC(=O)[C@H](C)NC(=O)[C@H](Cc2ccc(O)cc2)NC)[C@@H](C)CC)[C@@H](C)O)C(=O)N[C@@H](Cc2ccc(O)cc2)C(=O)N[C@@H](CCCNC(=N)N)C(=O)N[C@@H](CCCCN)C(=O)N1)[C@@H](C)CC)C(=O)N[C@@H](CO)C(=O)N[C@@H](CCCNC(=N)N)C(N)=O [SP-10] (H-[NMeY]ADAIFTA[S5]YRK[S5]LAQLSARKALQDI[Nle]SR-NH2; staple 9-13)
5,10 to 25,CCCC[C@H](NC(=O)[C@@H](NC(=O)[C@H](CC(=O)O)NC(=O)[C@H](CCC(N)=O)NC(=O)[C@H](CC(C)C)NC(=O)[C@H](C)NC(=O)[C@H](CCCCN)NC(=O)[C@H](CCCNC(=N)N)NC(=O)[C@H](C)NC(=O)[C@H](CO)NC(=O)[C@H](CC(C)C)NC(=O)[C@]1(C)CCCC=CCCC[C@](C)(NC(=O)[C@H](CCCNC(=N)N)NC(=O)[C@H](Cc2ccc(O)cc2)NC(=O)[C@H](CO)NC(=O)[C@H](C)NC(=O)[C@@H](NC(=O)[C@H](Cc2ccccc2)NC(=O)[C@@H](NC(=O)[C@H](C)NC(=O)[C@H](CC(=O)O)NC(=O)[C@H](C)NC(=O)[C@H](Cc2ccc(O)cc2)NC)[C@@H](C)CC)[C@@H](C)O)C(=O)N[C@@H](C(C)C)C(=O)N[C@@H](CC(C)C)C(=O)N[C@@H](C)C(=O)N1)[C@@H](C)CC)C(=O)N[C@@H](CO)C(=O)N[C@@H](CCCNC(=N)N)C(N)=O [SP-11] (H-[NMeY]ADAIFTASYR[S5]VLA[S5]LSARKALQDI[Nle]SR-NH2; staple 12-16)
6,10 to 25,CCCC[C@H](NC(=O)[C@@H](NC(=O)[C@H](CC(=O)O)NC(=O)[C@H](CCC(N)=O)NC(=O)[C@H](CC(C)C)NC(=O)[C@H](C)NC(=O)[C@H](CCCCN)NC(=O)[C@H](CCCNC(=N)N)NC(=O)[C@H](C)NC(=O)[C@]1(C)CCCC=CCCC[C@](C)(NC(=O)[C@@H](NC(=O)[C@H](CCCCN)NC(=O)[C@H](CCCNC(=N)N)NC(=O)[C@H](Cc2ccc(O)cc2)NC(=O)[C@H](CO)NC(=O)[C@H](C)NC(=O)[C@@H](NC(=O)[C@H](Cc2ccccc2)NC(=O)[C@@H](NC(=O)[C@H](C)NC(=O)[C@H](CC(=O)O)NC(=O)[C@H](C)NC(=O)[C@H](Cc2ccc(O)cc2)NC)[C@@H](C)CC)[C@@H](C)O)C(C)C)C(=O)N[C@@H](C)C(=O)N[C@@H](CCC(N)=O)C(=O)N[C@@H](CC(C)C)C(=O)N1)[C@@H](C)CC)C(=O)N[C@@H](CO)C(=O)N[C@@H](CCCNC(=N)N)C(N)=O [SP-13] (H-[NMeY]ADAIFTASYRKV[S5]AQL[S5]ARKALQDI[Nle]SR-NH2; staple 14-18)
7,1 to 10,CCCC[C@H](NC(=O)[C@@H](NC(=O)[C@H](CC(=O)O)NC(=O)[C@H](CCC(N)=O)NC(=O)[C@H](CC(C)C)NC(=O)[C@H](C)NC(=O)[C@H](CCCCN)NC(=O)[C@H](CCCNC(=N)N)NC(=O)[C@]1(C)CCCC=CCCC[C@](C)(NC(=O)[C@H](CC(C)C)NC(=O)[C@@H](NC(=O)[C@H](CCCCN)NC(=O)[C@H](CCCNC(=N)N)NC(=O)[C@H](Cc2ccc(O)cc2)NC(=O)[C@H](CO)NC(=O)[C@H](C)NC(=O)[C@@H](NC(=O)[C@H](Cc2ccccc2)NC(=O)[C@@H](NC(=O)[C@H](C)NC(=O)[C@H](CC(=O)O)NC(=O)[C@H](C)NC(=O)[C@H](Cc2ccc(O)cc2)NC)[C@@H](C)CC)[C@@H](C)O)C(C)C)C(=O)N[C@@H](CCC(N)=O)C(=O)N[C@@H](CC(C)C)C(=O)N[C@@H](CO)C(=O)N1)[C@@H](C)CC)C(=O)N[C@@H](CO)C(=O)N[C@@H](CCCNC(=N)N)C(N)=O [SP-14] (H-[NMeY]ADAIFTASYRKVL[S5]QLS[S5]RKALQDI[Nle]SR-NH2; staple 15-19)
8,≤ 1,CCCC[C@H](NC(=O)[C@@H](NC(=O)[C@H](CC(=O)O)NC(=O)[C@H](CCC(N)=O)NC(=O)[C@H](CC(C)C)NC(=O)[C@H](C)NC(=O)[C@]1(C)CCCC=CCCC[C@](C)(NC(=O)[C@H](CCC(N)=O)NC(=O)[C@H](C)NC(=O)[C@H](CC(C)C)NC(=O)[C@@H](NC(=O)[C@H](CCCCN)NC(=O)[C@H](CCCNC(=N)N)NC(=O)[C@H](Cc2ccc(O)cc2)NC(=O)[C@H](CO)NC(=O)[C@H](C)NC(=O)[C@@H](NC(=O)[C@H](Cc2ccccc2)NC(=O)[C@@H](NC(=O)[C@H](C)NC(=O)[C@H](CC(=O)O)NC(=O)[C@H](C)NC(=O)[C@H](Cc2ccc(O)cc2)NC)[C@@H](C)CC)[C@@H](C)O)C(C)C)C(=O)N[C@@H](CO)C(=O)N[C@@H](C)C(=O)N[C@@H](CCCNC(=N)N)C(=O)N1)[C@@H](C)CC)C(=O)N[C@@H](CO)C(=O)N[C@@H](CCCNC(=N)N)C(N)=O [SP-15] (H-[NMeY]ADAIFTASYRKVLAQ[S5]SAR[S5]ALQDI[Nle]SR-NH2; staple 17-21)
9,1 to 10,CCCC[C@H](NC(=O)[C@@H](NC(=O)[C@H](CC(=O)O)NC(=O)[C@H](CCC(N)=O)NC(=O)[C@H](CC(C)C)NC(=O)[C@]1(C)CCCC=CCCC[C@](C)(NC(=O)[C@H](CC(C)C)NC(=O)[C@H](CCC(N)=O)NC(=O)[C@H](C)NC(=O)[C@H](CC(C)C)NC(=O)[C@@H](NC(=O)[C@H](CCCCN)NC(=O)[C@H](CCCNC(=N)N)NC(=O)[C@H](Cc2ccc(O)cc2)NC(=O)[C@H](CO)NC(=O)[C@H](C)NC(=O)[C@@H](NC(=O)[C@H](Cc2ccccc2)NC(=O)[C@@H](NC(=O)[C@H](C)NC(=O)[C@H](CC(=O)O)NC(=O)[C@H](C)NC(=O)[C@H](Cc2ccc(O)cc2)NC)[C@@H](C)CC)[C@@H](C)O)C(C)C)C(=O)N[C@@H](C)C(=O)N[C@@H](CCCNC(=N)N)C(=O)N[C@@H](CCCCN)C(=O)N1)[C@@H](C)CC)C(=O)N[C@@H](CO)C(=O)N[C@@H](CCCNC(=N)N)C(N)=O [SP-16] (H-[NMeY]ADAIFTASYRKVLAQL[S5]ARK[S5]LQDI[Nle]SR-NH2; staple 18-22)
